Patent US9889092B2, “Low density lipoprotein nanocarriers for targeted delivery of omega-3 polyunsaturated fatty acids to cancer” (The Board of Regents of the University of Texas System, priority 2013, dated 2018)

Experiments:
[1] = Oxidative stability of LDL nanoparticles (peroxide value, HPLC DHA content); format: physicochemical; details: under air at 55° C. for 5 hrs
Description: FIGS. 4A-D. Oxidative stability: (FIG. 4A) HPLC determination of DHA content in LDL nanoparticles and DHA in heptane; (**) p<0.01 DHA in heptane versus LDL-DHA, after 14 days; (***) p<0.001, DHA in heptane versus LDL-DHA, after 21 and 28 days. (FIG. 4B) Peroxide indices of LDL, DHA in heptane, and LDL-DHA nanoparticles. Samples from FIG. 4A and FIG. 4B were stored at ambient conditions and were subjected to HPLC or peroxide analysis at baseline, 7, 14, 21, and 28 days; (**) p<0.01, DHA in heptane versus LDL-DHA after 14 days; (***) p<0.001, LDL or DHA in heptane versus LDL-DHA after 21 and 28 days; (****) p<0.0001, LDL versus LDL-DHA, after 28 days. […] DHA content is expressed as a percentage of baseline control. The peroxide index is expressed as mEq of peroxide/Kg of lipid.
Oxidative stability of LDL nanoparticles. […] Absorbance of red color formed from the presence of ferric ion was measured at 500 nm using UV-visible spectrophotometer (UV 1800, Shimadzu, USA) and the concentration was determined using a calibration curve of ferric chloride (FeCl3). […] The peroxide value was calculated using the following formula: PV=[Fe3+]/(55.84×g of lipids×2) where 55.84 is the molecular weight of iron. Results were expressed as mEq peroxide/kg lipid.

TIB-75 cells = test: Cell toxicity assay (MTS), TIB-75; format: cell-based, mouse; details: 40 μM LDL-DHA with 100 or 200 μM Vitamin E, 72 hours
Procedure: Cell culture. The mouse liver cell line TIB-73 (BNL CL.2) and its malignant counterpart TIB-75 (BNL 1MEA.7R.1) were obtained from ATCC (Manassas, Va.) and cultured in Dulbeco's modified Eagle's medium (DMEM) supplemented with 10% fetal bovine serum (FBS). Cells were grown at 37° C. in an atmosphere of 5% CO2 in a humidified incubator.
Cell toxicity assay (MTS). Each cell type was seeded in 96-well plates (2×10^3 cells/well). After 48 hrs of culture, the cells received various concentrations of the LDL-DHA nanoparticles ranging from 0 to 100 μM (DHA). For controls (LDL-OA/TO) dosing went as high as 200 μM. At the end of the 72 hr treatment period, the cell viability was measured by the MTS assay as recommended by the manufacturer. In brief, 20 μL MTS solution was added to each well and cells were incubated at 37° C. for 4 hrs followed by absorbance readings at 490 nm. The relative cell viability is expressed as a percentage of the non treated controls.

Row | oxidative stability in final stress test [1] | Molecule | effect of co-incubation on LDL-DHA cytotoxicity in TIB-75 cells (TIB-75 cells)
1 | significant degradative peroxidation | CC/C=C\C/C=C\C/C=C\C/C=C\C/C=C\C/C=C\CCC(=O)O [DHA in heptane, docosahexaenoic acid] | 
2 |  | vitamin E | effectively abrogate the cytotoxicity of LDL-DHA
